This is an account of results in ChEMBL document CHEMBL4616581, “Current scenario of artemisinin and its analogues for antimalarial activity” (Eur J Med Chem, 2019).

SMILES strings stand for the structures. ≈ marks a conversion by molar mass, not a printed value.

Holding throughout (format): functional, organism-based
Test [1] relates to Plasmodium falciparum. Kind of test: Antimalarial activity against Plasmodium falciparum K1 after 48 hrs by [3H]hypoxanthine incorporation assay.
In test [2] the test system is Plasmodium falciparum. As to the kind of experiment: Antimalarial activity against Plasmodium falciparum HB3 after 48 hrs by [3H]hypoxanthine incorporation assay.
Test [3] has as its system Plasmodium falciparum. Kind of test: Antimalarial activity against chloroquine-sensitive Plasmodium falciparum 3D7 after 72 hrs by SYBR green dye-based spectrofluorometer analysis. The following applies: 3D7, 72 h.
Test [4] has as its system Plasmodium falciparum. As to the kind of experiment: Antimalarial activity against chloroquine-resistant Plasmodium falciparum K1 after 72 hrs by SYBR green dye-based spectrofluorometer analysis. The following applies: K1, 72 h.
The subject of test [5] is Plasmodium falciparum. Kind of test: Antimalarial activity against chloroquine-sensitive Plasmodium falciparum NF54.
Test [6] deals with Plasmodium falciparum. Kind of test: Antimalarial activity against Plasmodium falciparum D6 after 48 hrs by in presence of [3H]hypoxanthine.
Test [7] concerns Plasmodium falciparum. Kind of test: Antimalarial activity against Plasmodium falciparum W2 after 48 hrs by in presence of [3H]hypoxanthine.
The subject of test [8] is Plasmodium falciparum. As to the kind of experiment: Antimalarial activity against Plasmodium falciparum HB3 after 48 hrs by [3H]-hypoxanthine incorporation assay.
In test [9] the test system is Plasmodium falciparum. Kind of test: Antimalarial activity against chloroquine-resistant Plasmodium falciparum K1 after 48 hrs by [3H]-hypoxanthine incorporation assay.
The subject of test [10] is Plasmodium falciparum. As to the kind of experiment: Antimalarial activity against Plasmodium falciparum 3D7 after 72 hrs by SYBR green dye-based assay. The following applies: 3D7, 72 h.
Test [11] deals with Plasmodium falciparum. Kind of test: Antimalarial activity against Plasmodium falciparum NF54.
Test [12] has as its system Plasmodium falciparum. As to the kind of experiment: Antimalarial activity against Plasmodium falciparum K1 by [3H]-hypoxanthine incorporation assay.
The subject of test [13] is Plasmodium falciparum. As to the kind of experiment: Antimalarial activity against blood stages of chloroquine-sensitive Plasmodium falciparum 3D7.
The subject of test [14] is Plasmodium falciparum. As to the kind of experiment: Antimalarial activity against blood stages of chloroquine-resistant Plasmodium falciparum K1.

On to `C[C@H]1[C@@H](Oc2ccc(C(F)(F)F)cc2)O[C@@H]2O[C@]3(C)CC[C@H]4[C@H](C)CC[C@@H]1[C@@]24OO3`, for which, in test [1], half-maximal inhibition (IC50) required 5.92 nM. As for `C[C@H]1[C@@H](Oc2cccc3ccccc23)O[C@@H]2O[C@]3(C)CC[C@H]4[C@H](C)CC[C@@H]1[C@@]24OO3`, the concentration for half-maximal inhibition (IC50) in test [1] stood at 8.89 nM; in [2] it was 7.06 nM.

On to `CCC(=O)OC1O[C@@H]2O[C@]3(C)CC[C@H]4[C@H](C)CC[C@@H]([C@H]1C)[C@@]24OO3` (stereo partly drawn), for which the concentration giving a half-maximal response (EC50) is 3.1 nM in test [3] and 0.3 nM in test [4]. `C[C@@H]1CC[C@H]2[C@@H](C)C(CC(=O)c3ccc(C(=O)CC4O[C@@H]5O[C@]6(C)CC[C@H]7[C@H](C)CC[C@@H]([C@H]4C)[C@@]57OO6)cc3)O[C@@H]3O[C@]4(C)CC[C@@H]1[C@]32OO4` (stereo partly drawn) gave an IC50 in test [5] of 1.9 nM. For `CCOC(=O)CC[C@@H](O[C@H]1O[C@@H]2O[C@]3(C)CC[C@H]4[C@H](C)CC[C@@H]([C@H]1C)[C@@]24OO3)c1ccccc1`, the 50% inhibitory concentration (IC50) amounted to 0.496 ng/mL in test [6] and 0.213 ng/mL in test [7]. With `CCOC(=O)CC[C@@H](O[C@H]1O[C@@H]2O[C@]3(C)CC[C@H]4[C@H](C)CC[C@@H]([C@H]1C)[C@@]24OO3)c1ccc([N+](=O)[O-])cc1`, the results for the IC50 in test [6] and in test [7] were 0.563 ng/mL and 0.23 ng/mL, respectively. On to `CC(C)CNCCOC1O[C@@H]2O[C@]3(C)CC[C@H]4[C@H](C)CC[C@@H]([C@H]1C)[C@@]24OO3` (stereo partly drawn), for which the half-maximal effective concentration (EC50) turned out to be 6.8 nM in [3] and 2.4 nM in [4]. On to `COP(=O)(OCC[C@H]1O[C@@H]2O[C@]3(C)CC[C@H]4[C@H](C)CC[C@@H]([C@H]1C)[C@@]24OO3)OCC[C@H]1O[C@@H]2O[C@]3(C)CC[C@H]4[C@H](C)CC[C@@H]([C@H]1C)[C@@]24OO3`, for which the IC50 in test [8] turned out to be 0.09 nM; in [9] it was 0.2 nM. In turn, `C[C@@H]1CC[C@H]2[C@@H](C)C(CC(=O)c3cccc(C(=O)CC4O[C@@H]5O[C@]6(C)CC[C@H]7[C@H](C)CC[C@@H]([C@H]4C)[C@@]57OO6)c3)O[C@@H]3O[C@]4(C)CC[C@@H]1[C@]32OO4` (stereo partly drawn) gave a half-inhibitory concentration (IC50) in test [5] of 1.9 nM. Regarding `C[C@@H]1CC[C@H]2[C@@H](C)C(OC(=O)Cc3ccccc3)O[C@@H]3O[C@]4(C)CC[C@@H]1[C@]32OO4` (stereo partly drawn), the EC50 in test [3] came out at 2.4 nM; in test [4], 0.5 nM. Consider `CCOC(=O)CC[C@H](O[C@H]1O[C@@H]2O[C@]3(C)CC[C@H]4[C@H](C)CC[C@@H]([C@H]1C)[C@@]24OO3)c1ccccc1`, for which the concentration for half-maximal inhibition (IC50) came out at 0.459 ng/mL in test [6] and 0.144 ng/mL in test [7].

On to `C[C@H]1[C@H](OC(=O)CCC(=O)Nc2ccc3ncnc(Nc4ccc(Cl)c(Cl)c4)c3c2)O[C@@H]2O[C@]3(C)CC[C@H]4[C@H](C)CC[C@@H]1[C@@]24OO3`, for which the EC50 in test [10] is 1.4 nM. `CC1=C(/C=C/c2ccccc2)O[C@@H]2O[C@]3(C)CC[C@H]4[C@H](C)CC[C@@H]1[C@@]24OO3` had an IC50 in test [11] of 16 nM.

`C[C@H]1[C@H](Oc2cccc3ccccc23)O[C@@H]2O[C@]3(C)CC[C@H]4[C@H](C)CC[C@@H]1[C@@]24OO3`: the half-inhibitory concentration (IC50) in [1] and in test [2] was 2.88 nM throughout. As to `COc1cc(OC)c(C2O[C@@H]3O[C@]4(C)CC[C@H]5[C@H](C)CC[C@@H]([C@H]2C)[C@@]35OO4)cc1C1O[C@@H]2O[C@]3(C)CC[C@H]4[C@H](C)CC[C@@H]([C@H]1C)[C@@]24OO3` (stereo partly drawn), the concentration for half-maximal inhibition (IC50) in [5] was determined as 1.3 nM. `C=CC1=C(C)[C@@H]2CC[C@@H](C)[C@@H]3CC[C@]4(C)OO[C@@]23[C@H](O1)O4` yielded a half-maximal inhibitory concentration (IC50) in test [11] of 28 nM. Compound `C[C@@H]1CC[C@H]2[C@H](C[C@@]3(CCCCCCC[C@]4(C[C@H]5C(=O)O[C@@H]6O[C@]7(C)CC[C@H]8[C@H](C)CC[C@@H]5[C@@]68OO7)C(=O)O[C@@H]5O[C@]6(C)CC[C@H]7[C@H](C)CC[C@@H]4[C@@]57OO6)C(=O)O[C@@H]4O[C@]5(C)CC[C@H]6[C@H](C)CC[C@@H]3[C@@]46OO5)C(=O)O[C@@H]3O[C@]4(C)CC[C@@H]1[C@]32OO4` yielded an EC50 in test [12] of 20 nM.

As to `C[C@H]1[C@H](OC(=O)CCC(=O)Oc2ccc(Nc3ncnc4ccccc34)cc2)O[C@@H]2O[C@]3(C)CC[C@H]4[C@H](C)CC[C@@H]1[C@@]24OO3`, in [10], it took 3.8 nM to reach a half-maximal effect (EC50). `CC1=C(/C=C\c2ccccc2)O[C@@H]2O[C@]3(C)CC[C@H]4[C@H](C)CC[C@@H]1[C@@]24OO3` yielded an IC50 in test [11] of 8.1 nM. `C[C@@H]1CC[C@H]2[C@H](C[C@@]3(CCCCCC[C@]4(C[C@H]5C(=O)O[C@@H]6O[C@]7(C)CC[C@H]8[C@H](C)CC[C@@H]5[C@@]68OO7)C(=O)O[C@@H]5O[C@]6(C)CC[C@H]7[C@H](C)CC[C@@H]4[C@@]57OO6)C(=O)O[C@@H]4O[C@]5(C)CC[C@H]6[C@H](C)CC[C@@H]3[C@@]46OO5)C(=O)O[C@@H]3O[C@]4(C)CC[C@@H]1[C@]32OO4`: a half-maximal effect in test [12] (EC50) was put at 5.8 nM.

Take `C[C@H]1[C@@H](CCOP(=O)(OCC[C@H]2O[C@@H]3O[C@]4(C)CC[C@H]5[C@H](C)CC[C@@H]([C@H]2C)[C@@]35OO4)Oc2ccccc2)O[C@@H]2O[C@]3(C)CC[C@H]4[C@H](C)CC[C@@H]1[C@@]24OO3`: the half-inhibitory concentration (IC50) in [8] amounted to 0.18 nM; in test [9] it was 0.5 nM.

`C[C@@H]1CC[C@H]2[C@@H](C)C(=O)O[C@@H]3O[C@@]4(C)CC[C@@H]1[C@]32OO4` [ARTEMISININ] gave an EC50 in test [13] of 12.1 nM. In addition, the IC50 in test [14] stood at 0.68 ng/mL (≈ 2.41 nM).

In general, IC50 refers to the midpoint of a concentration-inhibition curve. In general, EC50 refers to the concentration needed to bring the measured effect to its halfway point. Low readings indicate a more potent agent, high ones a less potent agent.
